Measured values taken from patent publication US20160084855A1, “Compositions and Methods for Modulation and Detection of Immune and Inflammatory Responses” (UNIVERSITY OF CONNECTICUT, priority 2013, published 2016).
“Also recorded” adds a separate entry of the source.

Assays:
TLR4 = conditions: Gomi et al., J Immunol. 2002; cited from earlier work
CCL2 = assay: Serum CCL2 by ELISA after injection of lipid into mice; type: in vivo, mouse; conditions: four hours
Method: Lipid 654 was injected intraperitoneally (i.p.) into mice and three to four hours later serum was drawn and analyzed for levels of CCL2 via ELISA. Both female wild type (WT) C57BL/6 mice and female TLR2-deficient (TLR2−/−) mice were injected i.p. with either DMSO (vehicle control; VC) or Lipid 654. Three to four hours later, serum was drawn from these mice and analyzed for levels of CCL2.
In vivo assays: Wild-type (WT) C57BL/6 mice or TLR2^−/− mice were injected intraperitoneally (i.p.) or intravenously (i.v.) with vehicle control or specific lipids. Four hours later, blood samples were obtained from mice, and the mice were euthanized. Serum was separated from the blood samples and frozen at −80° C. until analysis. Serum samples were analyzed for levels of CCL2 by ELISA (R&D, Minneapolis, Minn.).
Lipid 654 was injected i.p. in 50% DMSO and lipid 430 was injected i.v. in phosphate-buffered saline (PBS). WT female C57BL/6 mice and TLR2^−/− female mice were injected with either vehicle, lipid 654, or lipid 430. Four hours later, serum was recovered from these mice and analyzed for levels of CCL2. […] The same was true for lipid 430.

TLR2 = target: T1, TLR2 (Mus musculus, UniProt Q9QUN7); assay: TLR2 engagement in mouse bone cells; type: cell-based
T1 construct: endogenous in cells; host or cells: mouse bone cells
Text: Phospholipase A2 enzymes are recovered in all tissues and levels of this enzyme are increased in association with virtually all chronic inflammatory diseases. In fact, phospholipase A2 inhibitors are being used to treat atherosclerosis, multiple sclerosis, and a variety of other conditions. Phospholipase A2 hydrolyzes glycerol phospholipids so that the ester linked fatty acid in the #2 carbon position of glycerol is released, but only for a glycerol ester linkage in the L enantiomeric configuration. Phospholipase A2 will not hydrolyze fatty acid linked in the D enantiomeric form of glycerol.

human TLR4 = target: T2, human TLR4 (Homo sapiens, UniProt O00206+Q9Y6Y9); assay: HEK293 cells transfected with human TLR4, CD14 (MD-2) and SEAP reporter; type: cell-based; conditions: 24 hours; for Activation of TLR4-expressing HEK293 cells: Example 23, lipids 0.69 μg/ml, LPS 1 μg/ml
T2 construct: host or cells: HEK293
Method: (§1) Cell lines and assays: Human embryonic kidney cells (HEK293 cells), either nontransfected or transfected with human TLR2 or human TLR4 and stably expressing MD-2 and CD14, were purchased from InvivoGen. Cells were cultured in Dulbecco's modified Eagle's medium (DMEM; Gibco) containing 4.5 g/liter 1-glucose and 10% fetal bovine serum (FBS). The activities of specific TLR agonists were measured through a colorimetric assay for the secretory embryonic alkaline phosphatase (SEAP), a reporter gene that is linked to NF-κB activation. Measurement of SEAP activity using the Quanti-blue substrate (InvivoGen) after TLR agonist treatment was carried out in test medium (DMEM, 10% FBS) without antibiotics. NF-κB activation was expressed as a response ratio for each stimulus relative to SEAP activity in unstimulated (vehicle control) cells. For in vitro testing, all lipid preparations tested were solubilized in a 50% mixture of dimethyl sulfoxide (DMSO)-water (approximately 1.11% DMSO in the final culture medium).
To test whether lipid 654 and lipid 430 can function as ligands for TLR4, HEK293 cells transfected with the human TLR4, CD14, and MD-2 genes but not expressing TLR2 were utilized.

human TLR2 = target: T3, human TLR2 (Homo sapiens, UniProt O60603); assay: HEK293 cells transfected with human TLR2, CD14 (MD-2) and SEAP reporter; type: cell-based; conditions: for HEK cell activation versus DMSO vehicle (stimulated/nonstimulated ratio): 24 h, MMP 0.2 μg/ml, LTA 2 μg/ml, lipid 654 and lipid 430 0.69 μg/ml, P<0.05; for Activation of human TLR2 in HEK cells: HPLC fractions of P. gingivalis total lipids; for Effect of pretreatment with anti-human TLR2 antibody on HEK-TLR2 cell activation: antibody 10 μg/mL 1 hour, MMP 0.1 μg/ml, LTA 1 μg/ml, lipid 430 and lipid 654 0.69 μg/ml
T3 construct: host or cells: HEK293
Text: In vitro effects, human cells: HEK293 cells (human embryonic kidney cells) transfected with the human TLR2 and SEAP (secreted embryonic alkaline phosphatase) genes, were used to assay the function of Lipid 654 in vitro. The HEK cells, which naturally express variable levels of TLRs 1, 3, 5, 6, 7 and 9, were also transfected with the gene for CD14. CD14 is a co-receptor that enhances TLR2 responses. Additionally, TLR2 responses are most often mediated via another co-receptor which, in most cases, is either TLR1 or TLR6. The SEAP reporter gene is under the control of the IFN-β minimal promoter fused to five NF-κB and AP-1-binding sites. Stimulation with a TLR2 ligand activates NF-κB and AP-1 which induce the production of SEAP which is then quantitated as a colorimetric change in the presence of a detection medium.
Lipid 654, solubilized in 50% DMSO in water, and two documented TLR2 agonists, MMP and lipotechoic acid (LTA), were incubated for 24 hours with the HEK cells in the presence or absence of antibodies to TLR2 and TLR6.
as §1
To determine the ability of P. gingivalis lipids to activate human cells via TLRs, the total lipids of P. gingivalis were fractionated by HPLC, and an aliquot of each fraction was dried and dissolved in 50% DMSO in water. Each HPLC fraction was then tested for cell activation by using HEK293 cells stably transfected with human TLR2, CD14, MD-2, and SEAP genes. In addition, the HEK293 cells naturally express variable levels of TLRs 1, 3, 5, 6, 7, and 9. The SEAP reporter gene is under the control of the beta interferon minimal promoter fused to five NF-κB and AP-1 binding sites. Stimulation with a TLR2 ligand activates NF-κB and AP-1, which induces the production of SEAP. SEAP is then quantitated via a colorimetric change in medium samples following the addition of a suitable enzyme substrate. Using this cell screen for human TLR2 engagement, each HPLC lipid fraction was screened for cell activation.

female SJL mice with EAE = assay: EAE by transfer of PLP-stimulated lymph node lymphocytes into SJL mice; type: in vivo, mouse; conditions: 2 ng of Lipid 654 intravenously on day of cell transfer; 30 days; 5 mice; p=0.0006
Method: Female SJL mice were injected intra-peritoneally with 30×10^6 4-day in-vitro-activated proteolipid protein (PLP)-stimulated lymph node lymphocytes and on the same day injected intravenously with either phosphate buffered saline (PBS) (vehicle control=“VC”) or 2 ng of Lipid 654. Mice were followed for 30 days for development of EAE and scored as 1=tail paralysis; 2=abnormal gait; 3=paralyzed hind legs; 4=paralyzed front and hind legs; 5=death. The results in FIG. 21 depict the daily mean for 5 mice injected with the VC and 5 mice injected with Lipid 654. […] Thus, MS patients can be treated directly with Lipid 654 or with commensal bacteria that produce increased amounts of Lipid 654.

T3 sequence (O60603 21-784): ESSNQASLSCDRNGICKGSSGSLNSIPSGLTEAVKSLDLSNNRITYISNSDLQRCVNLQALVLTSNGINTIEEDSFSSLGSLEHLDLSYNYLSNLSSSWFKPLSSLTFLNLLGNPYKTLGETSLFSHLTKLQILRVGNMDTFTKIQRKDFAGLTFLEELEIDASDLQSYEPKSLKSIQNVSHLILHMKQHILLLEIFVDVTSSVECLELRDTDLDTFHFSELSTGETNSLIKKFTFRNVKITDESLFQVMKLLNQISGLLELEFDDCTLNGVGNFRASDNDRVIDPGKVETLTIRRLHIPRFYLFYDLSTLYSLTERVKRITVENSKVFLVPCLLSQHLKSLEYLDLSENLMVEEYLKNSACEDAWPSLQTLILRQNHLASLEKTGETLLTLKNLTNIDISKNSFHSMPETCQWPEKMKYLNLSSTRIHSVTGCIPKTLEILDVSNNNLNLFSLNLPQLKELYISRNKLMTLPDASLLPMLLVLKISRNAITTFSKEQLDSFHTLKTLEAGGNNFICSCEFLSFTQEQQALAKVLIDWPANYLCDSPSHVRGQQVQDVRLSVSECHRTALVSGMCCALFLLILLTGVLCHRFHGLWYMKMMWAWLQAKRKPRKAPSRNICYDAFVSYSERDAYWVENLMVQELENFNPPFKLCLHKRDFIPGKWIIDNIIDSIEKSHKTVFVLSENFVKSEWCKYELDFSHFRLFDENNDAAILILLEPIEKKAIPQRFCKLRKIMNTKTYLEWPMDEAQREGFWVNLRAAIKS
T3 sequence (Q9Y2C9 32-796 partner): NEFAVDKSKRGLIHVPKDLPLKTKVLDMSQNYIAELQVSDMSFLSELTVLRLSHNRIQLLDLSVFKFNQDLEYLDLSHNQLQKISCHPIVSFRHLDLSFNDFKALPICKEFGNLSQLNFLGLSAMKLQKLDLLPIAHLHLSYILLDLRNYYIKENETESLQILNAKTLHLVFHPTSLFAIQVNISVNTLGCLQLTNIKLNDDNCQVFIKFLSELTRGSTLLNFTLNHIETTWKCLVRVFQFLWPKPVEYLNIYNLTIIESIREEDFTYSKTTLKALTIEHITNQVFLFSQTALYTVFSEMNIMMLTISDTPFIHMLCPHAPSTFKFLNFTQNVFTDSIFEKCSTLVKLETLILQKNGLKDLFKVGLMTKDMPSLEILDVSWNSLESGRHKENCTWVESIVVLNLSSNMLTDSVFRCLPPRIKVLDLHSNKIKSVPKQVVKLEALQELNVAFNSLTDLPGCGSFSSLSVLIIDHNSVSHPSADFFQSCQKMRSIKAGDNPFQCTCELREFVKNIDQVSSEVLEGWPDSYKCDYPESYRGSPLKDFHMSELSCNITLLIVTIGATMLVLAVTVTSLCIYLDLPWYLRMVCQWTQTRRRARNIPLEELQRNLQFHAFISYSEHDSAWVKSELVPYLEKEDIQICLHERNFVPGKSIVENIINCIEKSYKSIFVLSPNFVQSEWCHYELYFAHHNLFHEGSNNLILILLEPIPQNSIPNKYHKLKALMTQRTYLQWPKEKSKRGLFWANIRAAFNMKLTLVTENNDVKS
T2 sequence (O00206 24-839): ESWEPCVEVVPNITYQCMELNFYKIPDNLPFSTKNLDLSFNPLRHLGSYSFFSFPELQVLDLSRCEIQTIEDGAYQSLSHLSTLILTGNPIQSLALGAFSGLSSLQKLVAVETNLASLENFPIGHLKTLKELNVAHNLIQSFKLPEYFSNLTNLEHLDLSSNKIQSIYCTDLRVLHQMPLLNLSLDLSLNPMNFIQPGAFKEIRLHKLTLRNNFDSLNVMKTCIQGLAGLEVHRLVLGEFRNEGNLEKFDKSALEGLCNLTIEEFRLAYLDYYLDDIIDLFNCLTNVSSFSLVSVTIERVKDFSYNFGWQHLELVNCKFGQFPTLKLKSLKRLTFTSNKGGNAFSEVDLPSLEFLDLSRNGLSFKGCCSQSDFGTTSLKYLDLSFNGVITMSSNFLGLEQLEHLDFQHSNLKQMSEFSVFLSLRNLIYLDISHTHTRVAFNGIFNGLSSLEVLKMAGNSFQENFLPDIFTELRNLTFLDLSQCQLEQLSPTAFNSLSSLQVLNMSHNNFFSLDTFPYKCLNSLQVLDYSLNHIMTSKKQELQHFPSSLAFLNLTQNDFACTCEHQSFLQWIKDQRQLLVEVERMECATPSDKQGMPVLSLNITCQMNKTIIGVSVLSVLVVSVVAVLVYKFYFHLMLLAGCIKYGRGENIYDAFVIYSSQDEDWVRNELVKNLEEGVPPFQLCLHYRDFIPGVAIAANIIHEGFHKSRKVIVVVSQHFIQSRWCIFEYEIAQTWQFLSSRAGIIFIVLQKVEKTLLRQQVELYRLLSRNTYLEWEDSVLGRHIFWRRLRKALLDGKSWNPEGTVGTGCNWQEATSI
T2 sequence (Q9Y6Y9 17-160 limits assumed): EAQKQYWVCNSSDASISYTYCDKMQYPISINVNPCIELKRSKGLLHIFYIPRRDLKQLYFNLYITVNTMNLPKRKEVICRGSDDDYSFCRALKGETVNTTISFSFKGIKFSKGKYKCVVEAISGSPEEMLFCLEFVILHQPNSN
T1 sequence (Q9QUN7 25-784): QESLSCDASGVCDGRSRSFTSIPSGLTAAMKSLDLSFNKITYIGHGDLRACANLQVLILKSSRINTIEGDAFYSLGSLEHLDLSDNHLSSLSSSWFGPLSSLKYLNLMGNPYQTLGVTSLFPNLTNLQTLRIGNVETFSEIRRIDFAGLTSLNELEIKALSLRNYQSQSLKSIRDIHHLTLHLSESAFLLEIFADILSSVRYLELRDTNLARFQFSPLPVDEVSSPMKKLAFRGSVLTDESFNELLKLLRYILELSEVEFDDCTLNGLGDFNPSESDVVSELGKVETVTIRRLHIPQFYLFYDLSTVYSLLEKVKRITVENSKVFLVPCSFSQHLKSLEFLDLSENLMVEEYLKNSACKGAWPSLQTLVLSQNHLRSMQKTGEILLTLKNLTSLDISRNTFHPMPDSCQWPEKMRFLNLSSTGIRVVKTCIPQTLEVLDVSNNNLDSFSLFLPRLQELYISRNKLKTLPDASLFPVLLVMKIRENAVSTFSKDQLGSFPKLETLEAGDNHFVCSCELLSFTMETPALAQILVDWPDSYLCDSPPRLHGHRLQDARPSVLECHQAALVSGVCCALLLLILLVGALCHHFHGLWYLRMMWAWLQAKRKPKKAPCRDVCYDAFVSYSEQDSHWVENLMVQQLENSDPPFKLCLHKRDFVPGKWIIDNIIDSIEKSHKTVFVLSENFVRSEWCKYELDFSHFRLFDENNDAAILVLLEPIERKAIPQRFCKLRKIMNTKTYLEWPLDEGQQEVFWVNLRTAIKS
T1 sequence (Q9EPW9 28-795 partner): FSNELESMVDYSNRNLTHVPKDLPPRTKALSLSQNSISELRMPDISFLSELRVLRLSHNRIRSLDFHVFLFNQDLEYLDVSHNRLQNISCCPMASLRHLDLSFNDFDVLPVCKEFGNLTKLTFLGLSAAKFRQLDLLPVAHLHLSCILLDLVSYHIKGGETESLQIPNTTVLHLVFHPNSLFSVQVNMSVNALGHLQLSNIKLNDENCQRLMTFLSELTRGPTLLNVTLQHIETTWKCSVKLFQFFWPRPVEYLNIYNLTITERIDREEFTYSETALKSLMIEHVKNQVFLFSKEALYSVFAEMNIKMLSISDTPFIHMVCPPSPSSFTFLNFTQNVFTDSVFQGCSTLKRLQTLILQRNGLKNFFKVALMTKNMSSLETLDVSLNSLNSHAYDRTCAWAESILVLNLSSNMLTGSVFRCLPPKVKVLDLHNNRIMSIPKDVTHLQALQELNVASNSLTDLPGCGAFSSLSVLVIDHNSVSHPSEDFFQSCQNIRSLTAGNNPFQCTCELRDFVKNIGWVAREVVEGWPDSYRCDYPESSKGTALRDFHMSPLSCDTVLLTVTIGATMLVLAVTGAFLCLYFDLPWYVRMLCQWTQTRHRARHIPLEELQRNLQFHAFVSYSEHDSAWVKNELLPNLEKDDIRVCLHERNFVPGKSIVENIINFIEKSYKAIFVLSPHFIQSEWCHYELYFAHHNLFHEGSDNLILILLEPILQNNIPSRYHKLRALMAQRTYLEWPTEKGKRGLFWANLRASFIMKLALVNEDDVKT
Method for phospholipase A2 (PLA2): Aliquots of the enriched 654 (10 μg each) were dispensed into conical vials and the residual solvent was dried. Tris-buffered (10 mM) saline containing either no calcium/0.01% sodium EDTA, 2.5 mM calcium, or 10 mM calcium was added to specific vials (1.0 ml) and the solution was sonicated for 30 seconds. Specific vials were then supplemented with either porcine pancreatic phospholipase A2 (PP PLA2), honey bee venom PLA2, bovine liver nonspecific esterase (BLE), phospholipase C (PLC), lipoprotein lipase (LL), phospholipase D (PLD), or cobra venom factor (CVF). PP PLA2 or HBV PLA2 was added at a concentration of 96 or 120 U/ml, respectively. All other lipase preparations were used at this or a higher concentration. Controls were dissolved in the indicated Tris buffer but were not supplemented with enzyme. Each vial was stirred for 3 days after which the hydrolyzate was acidified with 100 ul of glacial acetic acid and extracted three times with chloroform. The pooled extracts were dried, reconstituted in HPLC solvent, and evaluated for recovery of Lipid 654 and Lipid 430 using MRM-MS as previously described. Two different isolates of Lipid 654, indicated as (A) and (B), were compared for hydrolysis by either porcine pancreatic or honey bee venom PLA2.

CC(C)CCCCCCCCCCCC(=O)O[C@H](CCCCCCCCCCCC(C)C)CC(=O)NCC(=O)NC(CO)C(=O)O (stereo partly shown) [Flavolipin]
Innate immune activation via TLR4 (TLR4): acting as an agonist for TLR4

CC(C)CCCCCCCCCCCC(O)CC(=O)NCC(=O)N[C@@H](CO)C(=O)O (stereo partly shown) [Lipid 430]
Serum levels of CCL2 (CCL2; TLR2−/− mice, lipid 430 2.5 μg i.v. in PBS): failed to do so | Serum levels of CCL2 (CCL2; WT mice, lipid 430 2.5 μg i.v. in PBS): induced a significant increase in serum levels of CCL2 | Potency in engaging TLR2 relative to the Lipid 654 preparation (TLR2): at least ten fold more potent | TLR2 agonism (TLR2; Lipid 430 released with PLA2 treatment of Lipid 654): strong TLR2 agonist | Activation of TLR4-expressing HEK293 cells (human TLR4): showed no capacity to activate the TLR4-expressing cell line | HEK cell activation versus DMSO vehicle (stimulated/nonstimulated ratio) (human TLR2): promoted significant HEK cell activation over the control cells; also recorded: significantly elevated over the DMSO vehicle | Activation of human TLR2 in HEK cells (human TLR2; 24 hours): activates HEK cells through TLR2; also recorded: show the capacity to activate human TLR2 in HEK cells | Effect of pretreatment with anti-human TLR2 antibody on HEK-TLR2 cell activation (human TLR2; 24 hours): significantly inhibited by pretreatment with anti-human TLR2 antibody

CC(C)CCCCCCCCCCCC(=O)OC(CCCCCCCCCCCC(C)C)CC(=O)NCC(=O)N[C@@H](CO)C(=O)O (stereo partly shown) [Lipid 654]
Serum levels of CCL2 (CCL2; TLR2−/− mice, lipid 654 1 μg i.p. in 50% DMSO): failed to do so | Serum levels of CCL2 (CCL2; WT mice, lipid 654 1 μg i.p. in 50% DMSO): induced a significant increase in serum levels of CCL2 | Hydrolysis to Lipid 430 by other common lipase enzymes (phospholipase A2 (PLA2); BLE, PLC, LL, PLD, CVF, 3 days): no other common lipase enzymes | Hydrolysis by phospholipase A2 enzymes (phospholipase A2 (PLA2); porcine pancreas PLA2 96 U/ml or honey bee venom PLA2 120 U/ml, 3 days): is hydrolyzed by phospholipase A2 (PLA2) enzymes | Portion not hydrolyzed by PLA2 (phospholipase A2 (PLA2); repeated treatment with PLA2): Approximately half | Course of EAE compared to vehicle control (female SJL mice with EAE): significantly inhibited the course of EAE | Activation of TLR4-expressing cell line (human TLR4; Example 17, LPS derived from P. gingivalis, two preparations of Lipid 654): showed no ability to activate the TLR4-expressing cell line | Activation of TLR4-expressing HEK293 cells (human TLR4): showed no capacity to activate the TLR4-expressing cell line | HEK cell activation versus DMSO vehicle (stimulated/nonstimulated ratio) (human TLR2): promoted significant HEK cell activation over the control cells; also recorded: significantly elevated over the DMSO vehicle | Effect of anti-TLR2 and anti-TLR6 antibodies on NF-κB activation (human TLR2; Example 17, 24 hours): inhibited by anti-TLR2 and anti-TLR6 antibodies | NF-κB activation (SEAP) (human TLR2; Example 17, 24 hours, no antibodies): demonstrated NF-κB-activation | Activation of human TLR2 in HEK cells (human TLR2; 24 hours): show the capacity to activate human TLR2 in HEK cells | Effect of pretreatment with anti-human TLR2 antibody on HEK-TLR2 cell activation (human TLR2; 24 hours): significantly inhibited by pretreatment with anti-human TLR2 antibody
